# Measured values published in patent publication US12252524B2, “GIP/GLP1 co-agonist compounds” (Eli Lilly and Company, priority 2018, dated 2025).
# Numbered stars: 1 amine (or outer) side, 2 acyl side, 3 side chain; on linkers, the order of the positions; unused ones are H or OH. Square brackets hold non-standard residues; d marks the D form. Side chains are listed from the residue outwards. Peptide text beside a SMILES is read from it. * marks the point of attachment. C20 diacid = O=C(O)CCCCCCCCCCCCCCCCCCC(=O)*; C18 diacid = O=C(O)CCCCCCCCCCCCCCCCC(=O)*; γGlu = O=C(O)[C@H](CCC(=O)[*:2])N[*:1]; αMeF = C[C@](N)(Cc1ccccc1)C(=O)O; αMeL = CC(C)C[C@](C)(N)C(=O)O; αMeK = C[C@](N)(CCCCN)C(=O)O; AEEA = NCCOCCOCC(=O)O; Aib = CC(C)(N)C(=O)O
# Tests used:
# human GLP-1R = human GLP-1R (Homo sapiens, UniProt P43220); assay: [125I]-GLP-1 binding (SPA), human GLP-1 receptor; set-up: expressed in transfected cells; crude membranes; settings: read-out: hGLP1R Ki, (nM) (SEM, n)
# Method in brief: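 Crude-membrane binding assay; one membrane prep included 1 mM MgCl2 and 25 units/ml DNAse I during lysis. Assay buffer at pH 7.4 contains 0.1% (w/v) bacitracin and 0.003% (w/v) TWEEN-20. Ki is reported as geometric mean.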
# [1] = biological target: human GLP-1 receptor (GLP-1R) (Homo sapiens, UniProt P43220); assay: cAMP pharmacological functional assay in presence of casein, hGLP-1R; assay type: cell-based; settings: HEK293 cells expressing hGLP-1R, 0.1% Casein, geometric mean; read-out: hGLP1R cAMP Rel EC50 nM (SEM, n)
# human Gcg receptor = biological target: T1, human Gcg receptor (Homo sapiens, UniProt P47871); assay: [125I]-Glucagon binding (SPA), human Gcg receptor; settings: read-out: hGLcgR Ki, nM (SEM, n)
# T1 construct: expressed in transfected cells; crude membranes
# Method in brief: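 Crude membranes from cells expressing the receptor, prepared by hypotonic lysis in 50 mM Tris HCl pH 7.5 with protease inhibitors, homogenization and differential centrifugation, were used in a WGA-bead SPA. Binding buffer: 25 mM HEPES pH 7.4, 2.5 mM CaCl2, 1 mM MgCl2, bacitracin, Tween-20.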
# human GIP receptor = biological target: T2, human GIP receptor (Homo sapiens, UniProt P48546); assay: [125I]-GIP binding (SPA), human GIP receptor; settings: read-out: hGIPR Ki, nM (SEM, n)
# T2 construct: expressed in transfected cells; crude membranes
# T2 sequence (P48546 22-466): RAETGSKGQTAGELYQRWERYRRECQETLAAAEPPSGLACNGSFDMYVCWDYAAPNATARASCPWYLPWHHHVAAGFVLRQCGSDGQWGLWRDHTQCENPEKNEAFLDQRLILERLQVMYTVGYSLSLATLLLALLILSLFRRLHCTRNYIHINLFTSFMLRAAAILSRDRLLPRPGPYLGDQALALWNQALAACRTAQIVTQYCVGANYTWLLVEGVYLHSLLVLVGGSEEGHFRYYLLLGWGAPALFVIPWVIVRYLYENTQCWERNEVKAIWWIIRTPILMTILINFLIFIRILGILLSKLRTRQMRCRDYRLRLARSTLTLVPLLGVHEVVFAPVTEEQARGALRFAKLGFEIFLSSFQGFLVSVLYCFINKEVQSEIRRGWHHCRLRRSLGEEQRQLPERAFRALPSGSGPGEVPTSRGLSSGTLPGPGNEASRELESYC
# [2] = biological target: T3, gastric inhibitory peptide receptor (GIPR) (Homo sapiens, UniProt P48546); assay: cAMP pharmacological functional assay in presence of casein, hGIPR; assay type: cell-based; settings: HEK293 cells expressing hGIPR, 0.1% Casein, geometric mean; read-out: hGIPR cAMP Rel EC50 nM (SEM, n)
# T3 sequence (P48546 22-466): T2 sequence (P48546 22-466)
# Chain of human GLP-1R (P43220 24-463): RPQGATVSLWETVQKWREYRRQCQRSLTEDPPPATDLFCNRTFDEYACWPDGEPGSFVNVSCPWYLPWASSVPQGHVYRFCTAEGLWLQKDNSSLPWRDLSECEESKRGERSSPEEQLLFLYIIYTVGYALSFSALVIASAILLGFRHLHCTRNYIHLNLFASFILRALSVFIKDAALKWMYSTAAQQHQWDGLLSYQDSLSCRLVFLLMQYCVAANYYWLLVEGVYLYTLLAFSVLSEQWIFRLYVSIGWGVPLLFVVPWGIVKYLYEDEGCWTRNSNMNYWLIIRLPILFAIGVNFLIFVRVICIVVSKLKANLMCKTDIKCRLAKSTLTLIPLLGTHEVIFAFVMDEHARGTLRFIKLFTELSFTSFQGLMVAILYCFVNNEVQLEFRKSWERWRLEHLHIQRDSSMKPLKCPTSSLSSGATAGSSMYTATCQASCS
# Chain of human GLP-1 receptor (GLP-1R) (P43220 24-463): as above
# T1 sequence (P47871 26-477): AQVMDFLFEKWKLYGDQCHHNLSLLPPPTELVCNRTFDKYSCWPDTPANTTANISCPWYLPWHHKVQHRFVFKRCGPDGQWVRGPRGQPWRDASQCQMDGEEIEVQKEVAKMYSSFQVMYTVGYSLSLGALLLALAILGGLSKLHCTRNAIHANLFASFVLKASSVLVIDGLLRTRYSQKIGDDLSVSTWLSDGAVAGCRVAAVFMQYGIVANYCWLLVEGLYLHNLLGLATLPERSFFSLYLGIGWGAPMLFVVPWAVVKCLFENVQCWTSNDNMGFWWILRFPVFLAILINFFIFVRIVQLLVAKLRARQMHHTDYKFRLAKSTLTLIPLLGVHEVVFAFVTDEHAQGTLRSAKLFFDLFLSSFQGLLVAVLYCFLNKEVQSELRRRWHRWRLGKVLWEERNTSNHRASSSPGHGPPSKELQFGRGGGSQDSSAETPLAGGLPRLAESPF
SMILES,Ki (human GLP-1R) [nM],EC50 [1] [nM],Ki (human Gcg receptor) [nM],Ki (human GIP receptor) [nM],EC50 [2] [nM]
CC[C@H](C)[C@H](NC(=O)[C@H](CCCCN)NC(=O)[C@H](CC(=O)O)NC(=O)[C@H](CC(C)C)NC(=O)[C@H](CC(C)C)NC(=O)[C@@H](NC(=O)[C@H](CO)NC(=O)[C@H](Cc1ccc(O)cc1)NC(=O)[C@H](CC(=O)O)NC(=O)[C@H](CO)NC(=O)[C@@H](NC(=O)[C@H](Cc1ccccc1)NC(=O)[C@@H](NC(=O)CNC(=O)[C@H](CCC(=O)O)NC(=O)C(C)(C)NC(=O)[C@@H](N)Cc1ccc(O)cc1)[C@@H](C)O)[C@@H](C)O)[C@@H](C)CC)C(=O)N[C@@H](C)C(=O)N[C@@H](CCC(N)=O)C(=O)N[C@@H](CCCCNC(=O)COCCOCCNC(=O)COCCOCCNC(=O)CC[C@H](NC(=O)CCCCCCCCCCCCCCCCCCC(=O)O)C(=O)O)C(=O)N[C@@H](C)C(=O)N[C@@H](Cc1ccccc1)C(=O)N[C@H](C(=O)N[C@@H](CCC(=O)O)C(=O)N[C@@H](Cc1ccc(O)cc1)C(=O)N[C@@H](CC(C)C)C(=O)N[C@H](C(=O)N[C@@H](CCC(=O)O)C(=O)NCC(=O)NCC(=O)N1CCC[C@H]1C(=O)N[C@@H](CO)C(=O)N[C@@H](CO)C(=O)NCC(=O)N[C@@H](C)C(=O)N1CCC[C@H]1C(=O)N1CCC[C@H]1C(=O)N1CCC[C@H]1C(=O)N[C@@H](CO)C(N)=O)[C@@H](C)CC)[C@@H](C)CC [Example 12] (H-Y[Aib]EGTFTSDYSILLDKIAQK([AEEA-AEEA-γGlu-C20 diacid])AFIEYLIEGGPSSGAPPPS-NH2; N-terminus assumed),12.9,1.15,684,0.167,0.3
CC[C@H](C)[C@H](NC(=O)[C@H](CC(C)C)NC(=O)[C@H](Cc1ccc(O)cc1)NC(=O)[C@H](CCC(=O)O)NC(=O)[C@@H](NC(=O)[C@H](Cc1ccccc1)NC(=O)[C@H](C)NC(=O)C(C)(C)NC(=O)[C@H](CCC(N)=O)NC(=O)[C@H](C)NC(=O)[C@H](CCCCNC(=O)COCCOCCNC(=O)COCCOCCNC(=O)CC[C@H](NC(=O)CCCCCCCCCCCCCCCCC(=O)O)C(=O)O)NC(=O)[C@H](CCC(=O)O)NC(=O)[C@H](CC(=O)O)NC(=O)[C@H](CC(C)C)NC(=O)[C@H](CC(C)C)NC(=O)[C@@H](NC(=O)[C@H](CO)NC(=O)[C@H](Cc1ccc(O)cc1)NC(=O)[C@H](CC(=O)O)NC(=O)[C@H](CO)NC(=O)[C@@H](NC(=O)[C@](C)(Cc1ccccc1)NC(=O)[C@@H](NC(=O)CNC(=O)[C@H](CCC(=O)O)NC(=O)C(C)(C)NC(=O)[C@@H](N)Cc1ccc(O)cc1)[C@@H](C)O)[C@@H](C)O)[C@@H](C)CC)[C@@H](C)CC)C(=O)N[C@@H](CCC(=O)O)C(=O)NCC(=O)NCC(=O)N1CCC[C@H]1C(=O)N[C@@H](CO)C(=O)N[C@@H](CO)C(=O)NCC(N)=O [Example 307] (H-Y[Aib]EGT[αMeF]TSDYSILLDEK([AEEA-AEEA-γGlu-C18 diacid])AQ[Aib]AFIEYLIEGGPSSG-NH2),5.1,0.0437,117,0.0773,0.0285
CC[C@H](C)[C@H](NC(=O)[C@H](Cc1ccccc1)NC(=O)[C@H](C)NC(=O)[C@](C)(CCCCN)NC(=O)[C@H](CCC(N)=O)NC(=O)[C@H](C)NC(=O)[C@H](CCCCNC(=O)COCCOCCNC(=O)COCCOCCNC(=O)CC[C@H](NC(=O)CCCCCCCCCCCCCCCCCCC(=O)O)C(=O)O)NC(=O)[C@H](CCC(=O)O)NC(=O)[C@H](CC(=O)O)NC(=O)[C@H](CC(C)C)NC(=O)[C@](C)(CC(C)C)NC(=O)[C@@H](NC(=O)[C@H](CO)NC(=O)[C@H](Cc1ccc(O)cc1)NC(=O)[C@H](CC(=O)O)NC(=O)[C@H](CO)NC(=O)[C@@H](NC(=O)[C@H](Cc1ccccc1)NC(=O)[C@@H](NC(=O)CNC(=O)[C@H](CCC(=O)O)NC(=O)C(C)(C)NC(=O)[C@@H](N)Cc1ccc(O)cc1)[C@@H](C)O)[C@@H](C)O)[C@@H](C)CC)C(=O)N[C@@H](CCC(=O)O)C(=O)N[C@@H](Cc1ccc(O)cc1)C(=O)N[C@@H](CC(C)C)C(=O)N[C@@H](CC(C)C)C(=O)N[C@@H](CCC(=O)O)C(=O)NCC(=O)NCC(=O)N1CCC[C@H]1C(=O)N[C@@H](CO)C(=O)N[C@@H](CO)C(=O)NCC(=O)N[C@@H](C)C(=O)N1CCC[C@H]1C(=O)N1CCC[C@H]1C(=O)N1CCC[C@H]1C(=O)N[C@@H](CO)C(N)=O [Example 21] (H-Y[Aib]EGTFTSDYSI[αMeL]LDEK([AEEA-AEEA-γGlu-C20 diacid])AQ[αMeK]AFIEYLLEGGPSSGAPPPS-NH2),14.5,0.16,149,0.529,0.0748
CC[C@H](C)[C@H](NC(=O)[C@H](CCCCN)NC(=O)[C@H](CC(=O)O)NC(=O)[C@H](CC(C)C)NC(=O)[C@H](CC(C)C)NC(=O)[C@@H](NC(=O)[C@H](CO)NC(=O)[C@H](Cc1ccc(O)cc1)NC(=O)[C@H](CC(=O)O)NC(=O)[C@H](CO)NC(=O)[C@@H](NC(=O)[C@H](Cc1ccccc1)NC(=O)[C@@H](NC(=O)CNC(=O)[C@H](CCC(=O)O)NC(=O)C(C)(C)NC(=O)[C@@H](N)Cc1ccc(O)cc1)[C@@H](C)O)[C@@H](C)O)[C@@H](C)CC)C(=O)N[C@@H](C)C(=O)N[C@@H](CCC(N)=O)C(=O)NC(C)(C)C(=O)N[C@@H](C)C(=O)N[C@@H](Cc1ccccc1)C(=O)N[C@H](C(=O)N[C@@H](CCC(=O)O)C(=O)N[C@@H](Cc1ccc(O)cc1)C(=O)N[C@@H](CC(C)C)C(=O)N[C@H](C(=O)N[C@@H](CCC(=O)O)C(=O)N[C@@H](CCCCNC(=O)COCCOCCNC(=O)COCCOCCNC(=O)CC[C@H](NC(=O)CCCCCCCCCCCCCCCCCCC(=O)O)C(=O)O)C(=O)NCC(=O)N1CCC[C@H]1C(=O)N[C@@H](CO)C(=O)N[C@@H](CO)C(=O)NCC(=O)N[C@@H](C)C(=O)N1CCC[C@H]1C(=O)N1CCC[C@H]1C(=O)N1CCC[C@H]1C(=O)N[C@@H](CO)C(N)=O)[C@@H](C)CC)[C@@H](C)CC [Example 38] (H-Y[Aib]EGTFTSDYSILLDKIAQ[Aib]AFIEYLIEK([AEEA-AEEA-γGlu-C20 diacid])GPSSGAPPPS-NH2),31.3,2.82,> 974,0.104,0.147
CC[C@H](C)[C@H](NC(=O)[C@H](CC(C)C)NC(=O)[C@H](Cc1ccc(O)cc1)NC(=O)[C@H](CCC(=O)O)NC(=O)[C@@H](NC(=O)[C@H](Cc1ccccc1)NC(=O)C(C)(C)NC(=O)C(C)(C)NC(=O)[C@H](CCC(N)=O)NC(=O)[C@H](C)NC(=O)[C@H](CCCCNC(=O)COCCOCCNC(=O)COCCOCCNC(=O)CC[C@H](NC(=O)CCCCCCCCCCCCCCCCCCC(=O)O)C(=O)O)NC(=O)[C@H](CCCCN)NC(=O)[C@H](CC(=O)O)NC(=O)[C@H](CC(C)C)NC(=O)[C@](C)(CC(C)C)NC(=O)[C@@H](NC(=O)[C@H](CO)NC(=O)[C@H](Cc1ccc(O)cc1)NC(=O)[C@H](CC(=O)O)NC(=O)[C@H](CO)NC(=O)[C@@H](NC(=O)[C@](C)(Cc1ccccc1)NC(=O)[C@@H](NC(=O)CNC(=O)[C@H](CCC(=O)O)NC(=O)C(C)(C)NC(=O)[C@@H](N)Cc1ccc(O)cc1)[C@@H](C)O)[C@@H](C)O)[C@@H](C)CC)[C@@H](C)CC)C(=O)N[C@@H](CCC(=O)O)C(=O)NCC(=O)NCC(=O)N1CCC[C@H]1C(=O)N[C@@H](CO)C(=O)N[C@@H](CO)C(=O)NCC(=O)N[C@@H](C)C(=O)N1CCC[C@H]1C(=O)N1CCC[C@H]1C(=O)N1CCC[C@H]1C(=O)N[C@@H](CO)C(N)=O [Example 143] (H-Y[Aib]EGT[αMeF]TSDYSI[αMeL]LDKK([AEEA-AEEA-γGlu-C20 diacid])AQ[Aib][Aib]FIEYLIEGGPSSGAPPPS-NH2),1.15,0.0745,65.5,0.0304,0.0515
